Results reported in patent publication US12534748B2, “Engineered beta-subunit of tryptophan synthase for production of non-canonical amino acids” (California Institute of Technology, priority 2015, dated 2026).

How the values were obtained:
[1] = target: T1, Pyrococcus furiosus TrpB variant PfTrpB^2G9 (T292S), SEQ ID NO: 10 (Pyrococcus furiosus, UniProt Q8U093, T292S); assay: Tryptophan formation from L-serine and indole, kinetics of PfTrpB^2G9; format: biochemical
T1 sequence (Q8U093 with tags, fused parts or gaps T292S): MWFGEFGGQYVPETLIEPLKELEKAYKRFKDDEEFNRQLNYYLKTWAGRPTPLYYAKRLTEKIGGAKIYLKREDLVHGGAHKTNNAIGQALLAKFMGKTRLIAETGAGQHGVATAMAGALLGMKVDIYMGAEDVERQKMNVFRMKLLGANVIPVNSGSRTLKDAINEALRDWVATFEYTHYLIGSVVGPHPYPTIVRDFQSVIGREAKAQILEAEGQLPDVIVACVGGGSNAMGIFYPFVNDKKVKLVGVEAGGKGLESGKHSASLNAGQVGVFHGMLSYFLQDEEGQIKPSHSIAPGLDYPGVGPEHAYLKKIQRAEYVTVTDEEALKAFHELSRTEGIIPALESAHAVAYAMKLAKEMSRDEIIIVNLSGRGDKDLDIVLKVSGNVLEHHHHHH
Procedure: Cloning, Expression, and Purification of PfTrpA and PfTrpB. The genes encoding PfTrpB (UNIPROT ID Q8U093) and PfTrpA (UNIPROT ID Q8U094) were obtained as gBlocks and cloned into pET22(b)+ for expression in E. coli BL21 E. cloni EXPRESS cells (Lucigen). Heterologous protein expression of PfTrpA and PfTrpB was performed in Terrific Broth with 100 μg/mL ampicillin (TBamp) and induced with 500 mM IPTG (final concentration 1 mM). PfTrpB was purified via a HisTrap HP column. PfTrpA was purified via a Q HP HiTrap column (flow-through), followed by ammonium sulfate precipitation, and hydrophobic interaction chromatography on a phenyl Sepharose HP HiTrap column (FIG. 3).
Kinetics and UV-Vis Spectroscopy.

[2] = target: T2, Thermotoga maritima TrpB variant TmTrpB^triple (P19G, I69V, T292S), SEQ ID NO: 34 (Thermotoga maritima, UniProt P50909, I69V/P19G/T292S); assay: Tryptophan formation from L-serine and indole, kinetics of TmTrpB^triple; format: biochemical
T2 sequence (P50909 with tags, fused parts or gaps P19G/I69V/T292S): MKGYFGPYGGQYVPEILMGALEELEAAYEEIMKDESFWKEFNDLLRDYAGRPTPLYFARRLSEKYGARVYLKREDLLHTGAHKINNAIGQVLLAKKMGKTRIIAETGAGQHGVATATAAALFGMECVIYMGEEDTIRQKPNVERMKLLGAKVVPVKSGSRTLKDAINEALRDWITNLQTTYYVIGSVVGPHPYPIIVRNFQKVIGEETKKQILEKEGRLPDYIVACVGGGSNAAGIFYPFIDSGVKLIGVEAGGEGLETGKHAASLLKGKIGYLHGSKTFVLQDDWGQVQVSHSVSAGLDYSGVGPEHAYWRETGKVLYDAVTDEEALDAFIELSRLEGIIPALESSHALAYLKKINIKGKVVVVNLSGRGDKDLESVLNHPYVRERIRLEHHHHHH
Procedure: Kinetics and UV-Vis Spectroscopy. Data were collected between 550 and 250 nm on a UV1800 Shimadzu spectrophotometer (Shimadzu) using 0.25-20 μM of enzyme in 200 mM potassium phosphate (pH 8.0) in a quartz cuvette. Samples were incubated at 75° C. for >3 min to ensure a stable temperature was reached. PfTrpB activity (kcat) was measured by monitoring tryptophan formation at 290 nm using Δe290=1.89 mM^−1·cm^−1.
Cloning, expression, and purification of the different orthologs. The genes encoding AfTrpB (UNIPROT ID O28672), TmTrpB (UNIPROT ID P50909) and EcTrpB (UNIPROT ID P0A879) were obtained from IDT and cloned into pET22(b)+ using Gibson Assembly. Protein expression was carried out in E. coli BL21 E. cloni Express cells (Lucigen) by inoculating 10-mL Terrific Broth (with 100 μg/mL ampicillin (TBamp)) with a single colony and incubated over night at 37° C. and 250 rpm. These overnight cultures were used to scale up to 500-mL TBamp expression cultures, which were grown by shaking at 250 rpm and 37° C. for ˜3 h or until an OD600 of 0.8 was reached. […]
The next homolog, TmTrpB, was examined. […] The variants without the T292S mutation lacked this probative absorbance peak, but the decrease at 428 nm and concomitant increase at 350 nm are consistent with a similar, though less pronounced activation.

In the case of `c1ccc2[nH]ccc2c1` [indole], the kcat ([1]; 75° C.) is reported as 1.1 s⁻¹, the increase in kcat ([1]; compared with PfTrpB) is reported as 3.5 fold and the Km ([1]; read-out: KM, indole, 75° C.) is reported as 14 µM. For the same molecule, the kcat ([2]; 75° C.) was 9.8 s⁻¹ and the increase in kcat ([2]; with respect to wild type) was 8 fold.
